The nature of series [1]: Inhibition of human MDH incubated for 5 mins in presence of NADH by absorbance based analysis.
Series [2] in a line: Aggregation property of compound in DMEM assessed as critical aggregation concentration by DLS assay. The series is classed as physicochemical.
The species named for series [3] is Homo sapiens. As to the kind of experiment: Inhibition of human MDH at 100 to 200 uM incubated for 5 mins in presence of NADH by absorbance based analysis relative to control. Particulars: dose 100-200 µM.
Series [4] can be described thus: Aggregation property of compound in PB buffer at pH 7 assessed as critical aggregation concentration by DLS assay. Type of series: physicochemical.
The target of series [5] is Histamine H1 receptor (Homo sapiens, UniProt P35367). Briefly: Displacement of [3H]-Pyrilamine from human recombinant H1 receptor expressed in CHO-K1 cells incubated for 3 hrs by radioligand binding assay. Type of series: toxicity, cell-based. In general terms: In a radioligand displacement assay an active substance lowers the binding of a labelled ligand.
Chain of Histamine H1 receptor (P35367 whole entry): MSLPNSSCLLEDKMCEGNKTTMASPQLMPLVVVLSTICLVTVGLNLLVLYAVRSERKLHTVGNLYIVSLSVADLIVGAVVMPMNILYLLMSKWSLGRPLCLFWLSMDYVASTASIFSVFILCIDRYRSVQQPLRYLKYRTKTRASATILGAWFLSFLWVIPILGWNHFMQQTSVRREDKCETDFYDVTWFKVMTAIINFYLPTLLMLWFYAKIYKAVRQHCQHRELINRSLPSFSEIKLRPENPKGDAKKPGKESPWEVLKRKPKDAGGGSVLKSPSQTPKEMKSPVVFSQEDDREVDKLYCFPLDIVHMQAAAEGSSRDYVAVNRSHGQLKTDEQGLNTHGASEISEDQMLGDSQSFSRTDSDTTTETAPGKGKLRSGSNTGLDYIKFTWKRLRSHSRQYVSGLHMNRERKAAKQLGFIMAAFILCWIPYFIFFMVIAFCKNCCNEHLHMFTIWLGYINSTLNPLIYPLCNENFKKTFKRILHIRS
For series [6], the target named is Sodium-dependent noradrenaline transporter (Homo sapiens, UniProt P23975). As to the kind of experiment: Displacement of [125]RTI-55 from human recombinant NET receptor expressed in MDCK cells incubated for 3 hrs by radioligand binding assay. Type of series: toxicity, cell-based.
Chain of Sodium-dependent noradrenaline transporter (P23975 whole entry): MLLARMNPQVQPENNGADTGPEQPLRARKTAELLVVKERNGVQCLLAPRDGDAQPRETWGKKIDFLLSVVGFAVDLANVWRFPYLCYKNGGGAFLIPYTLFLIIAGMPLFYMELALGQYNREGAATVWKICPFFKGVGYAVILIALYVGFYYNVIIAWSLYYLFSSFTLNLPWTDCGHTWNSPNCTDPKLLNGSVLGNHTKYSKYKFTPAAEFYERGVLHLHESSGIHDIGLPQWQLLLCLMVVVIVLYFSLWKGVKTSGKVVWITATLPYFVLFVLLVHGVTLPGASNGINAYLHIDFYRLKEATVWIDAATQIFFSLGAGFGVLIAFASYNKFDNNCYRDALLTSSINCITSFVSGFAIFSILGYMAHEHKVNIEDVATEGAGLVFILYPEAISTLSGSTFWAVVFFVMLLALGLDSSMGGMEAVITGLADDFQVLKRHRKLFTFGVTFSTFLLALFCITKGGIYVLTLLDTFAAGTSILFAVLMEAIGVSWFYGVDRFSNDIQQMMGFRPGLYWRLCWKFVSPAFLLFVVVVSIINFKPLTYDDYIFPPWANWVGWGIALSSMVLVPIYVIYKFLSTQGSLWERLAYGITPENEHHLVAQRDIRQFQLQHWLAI
Series [7] has as its target Mu-type opioid receptor (Homo sapiens, UniProt P35372). Briefly: Displacement of [3H]-Diprenorphine from human recombinant MOP receptor expressed in CHO-K1 cells incubated for 60 mins by radioligand binding assay. The series is classed as toxicity, cell-based.
Series [8] is filed under the species Homo sapiens. Briefly: Inhibition of human MDH at 100 to 200 uM incubated for 5 mins in presence of NADH and triton X-100 by absorbance based analysis relative to control. Particulars: dose 100-200 µM.
Series [9] is described as follows: Aggregation property of compound in PBS buffer at pH 7.4 assessed as critical aggregation concentration by DLS assay. The series is classed as physicochemical.
Series [10] is described as follows: Aggregation property of compound in Tris HCL buffer at pH 7.4 assessed as critical aggregation concentration by DLS assay. Type of series: physicochemical.
In series [11] the target is 5-hydroxytryptamine receptor 2A (Homo sapiens, UniProt P28223). Briefly: Displacement of [3H]ketanserin from human recombinant 5-HT2A receptor expressed in CHO-K1 cells incubated for 60 mins by radioligand binding assay. Type of series: toxicity, cell-based.
Chain of 5-hydroxytryptamine receptor 2A (P28223 whole entry): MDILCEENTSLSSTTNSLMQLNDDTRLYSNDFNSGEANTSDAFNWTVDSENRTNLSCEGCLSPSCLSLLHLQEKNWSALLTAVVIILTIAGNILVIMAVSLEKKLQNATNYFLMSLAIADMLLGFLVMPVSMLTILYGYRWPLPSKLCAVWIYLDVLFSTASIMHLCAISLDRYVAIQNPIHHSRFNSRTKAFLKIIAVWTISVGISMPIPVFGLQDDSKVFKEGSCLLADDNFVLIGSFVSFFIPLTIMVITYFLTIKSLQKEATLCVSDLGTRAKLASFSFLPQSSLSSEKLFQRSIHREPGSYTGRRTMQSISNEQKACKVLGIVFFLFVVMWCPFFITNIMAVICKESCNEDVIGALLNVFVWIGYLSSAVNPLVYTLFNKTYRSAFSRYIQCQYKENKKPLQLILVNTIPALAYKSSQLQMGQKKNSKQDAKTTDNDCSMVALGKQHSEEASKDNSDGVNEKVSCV
In series [12] the target is Sodium-dependent serotonin transporter (Homo sapiens, UniProt P31645). As to the kind of experiment: Displacement of [3H]-Paroxetine from human […] cells incubated for 60 mins by radioligand binding assay. Type of series: toxicity, cell-based.
Chain of Sodium-dependent serotonin transporter (P31645 whole entry): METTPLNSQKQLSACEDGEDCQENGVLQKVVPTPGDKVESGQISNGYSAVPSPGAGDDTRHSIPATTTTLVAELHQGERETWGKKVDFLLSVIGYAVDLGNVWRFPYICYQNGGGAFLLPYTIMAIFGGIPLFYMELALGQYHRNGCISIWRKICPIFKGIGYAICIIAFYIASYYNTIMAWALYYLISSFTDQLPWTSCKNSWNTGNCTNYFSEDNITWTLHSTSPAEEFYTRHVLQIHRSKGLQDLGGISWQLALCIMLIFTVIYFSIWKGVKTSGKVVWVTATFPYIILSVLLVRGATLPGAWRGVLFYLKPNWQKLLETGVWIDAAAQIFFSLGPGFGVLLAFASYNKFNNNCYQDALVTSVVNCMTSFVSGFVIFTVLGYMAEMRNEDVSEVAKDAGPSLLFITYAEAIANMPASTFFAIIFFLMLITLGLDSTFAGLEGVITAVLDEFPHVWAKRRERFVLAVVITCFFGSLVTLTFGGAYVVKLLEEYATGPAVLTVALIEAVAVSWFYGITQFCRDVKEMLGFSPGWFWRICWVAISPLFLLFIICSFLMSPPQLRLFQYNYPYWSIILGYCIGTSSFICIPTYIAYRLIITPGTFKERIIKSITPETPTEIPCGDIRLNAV
For series [13], the target named is Sodium-dependent dopamine transporter (Homo sapiens, UniProt Q01959). As to the kind of experiment: Displacement of [125]RTI-55 from human recombinant DAT receptor expressed in CHO-S cells incubated for 3 hrs by radioligand binding assay. Type of series: cell-based.
Chain of Sodium-dependent dopamine transporter (Q01959 whole entry): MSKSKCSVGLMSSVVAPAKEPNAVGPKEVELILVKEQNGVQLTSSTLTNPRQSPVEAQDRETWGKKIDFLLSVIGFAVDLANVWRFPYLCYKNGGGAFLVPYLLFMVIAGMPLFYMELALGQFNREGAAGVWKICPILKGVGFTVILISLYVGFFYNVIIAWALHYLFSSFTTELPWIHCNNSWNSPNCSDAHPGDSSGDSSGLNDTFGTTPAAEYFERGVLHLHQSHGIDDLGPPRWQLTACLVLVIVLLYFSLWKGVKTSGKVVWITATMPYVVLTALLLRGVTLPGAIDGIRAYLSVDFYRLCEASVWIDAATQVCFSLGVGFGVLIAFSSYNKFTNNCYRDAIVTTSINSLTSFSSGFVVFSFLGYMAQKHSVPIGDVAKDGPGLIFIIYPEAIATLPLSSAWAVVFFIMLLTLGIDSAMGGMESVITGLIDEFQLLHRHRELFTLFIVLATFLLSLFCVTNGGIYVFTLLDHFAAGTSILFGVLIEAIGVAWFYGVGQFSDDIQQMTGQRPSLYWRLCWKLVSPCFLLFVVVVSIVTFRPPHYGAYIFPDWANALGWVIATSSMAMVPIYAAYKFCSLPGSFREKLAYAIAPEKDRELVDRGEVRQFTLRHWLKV
Series [14] addresses Voltage-gated inwardly rectifying potassium channel KCNH2 (Homo sapiens, UniProt Q12809). As to the kind of experiment: Displacement of [3H]-Dofetilide from recombinant hERG expressed in HEK293 cells incubated for 60 mins by radioligand binding assay. The series is classed as toxicity, cell-based.

Chain of Mu-type opioid receptor (P35372 whole entry): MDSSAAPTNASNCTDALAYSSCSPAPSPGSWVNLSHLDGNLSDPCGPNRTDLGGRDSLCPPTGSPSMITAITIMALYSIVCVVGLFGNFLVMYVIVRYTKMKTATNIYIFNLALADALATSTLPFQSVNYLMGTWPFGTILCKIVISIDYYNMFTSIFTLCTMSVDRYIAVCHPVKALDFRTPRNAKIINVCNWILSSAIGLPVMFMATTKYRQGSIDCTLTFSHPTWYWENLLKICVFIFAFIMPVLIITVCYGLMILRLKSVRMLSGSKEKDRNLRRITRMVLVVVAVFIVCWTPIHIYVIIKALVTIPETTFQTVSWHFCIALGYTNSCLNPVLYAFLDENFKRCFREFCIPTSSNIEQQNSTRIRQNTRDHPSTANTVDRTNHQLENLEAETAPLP
Chain of Voltage-gated inwardly rectifying potassium channel KCNH2 (Q12809 whole entry): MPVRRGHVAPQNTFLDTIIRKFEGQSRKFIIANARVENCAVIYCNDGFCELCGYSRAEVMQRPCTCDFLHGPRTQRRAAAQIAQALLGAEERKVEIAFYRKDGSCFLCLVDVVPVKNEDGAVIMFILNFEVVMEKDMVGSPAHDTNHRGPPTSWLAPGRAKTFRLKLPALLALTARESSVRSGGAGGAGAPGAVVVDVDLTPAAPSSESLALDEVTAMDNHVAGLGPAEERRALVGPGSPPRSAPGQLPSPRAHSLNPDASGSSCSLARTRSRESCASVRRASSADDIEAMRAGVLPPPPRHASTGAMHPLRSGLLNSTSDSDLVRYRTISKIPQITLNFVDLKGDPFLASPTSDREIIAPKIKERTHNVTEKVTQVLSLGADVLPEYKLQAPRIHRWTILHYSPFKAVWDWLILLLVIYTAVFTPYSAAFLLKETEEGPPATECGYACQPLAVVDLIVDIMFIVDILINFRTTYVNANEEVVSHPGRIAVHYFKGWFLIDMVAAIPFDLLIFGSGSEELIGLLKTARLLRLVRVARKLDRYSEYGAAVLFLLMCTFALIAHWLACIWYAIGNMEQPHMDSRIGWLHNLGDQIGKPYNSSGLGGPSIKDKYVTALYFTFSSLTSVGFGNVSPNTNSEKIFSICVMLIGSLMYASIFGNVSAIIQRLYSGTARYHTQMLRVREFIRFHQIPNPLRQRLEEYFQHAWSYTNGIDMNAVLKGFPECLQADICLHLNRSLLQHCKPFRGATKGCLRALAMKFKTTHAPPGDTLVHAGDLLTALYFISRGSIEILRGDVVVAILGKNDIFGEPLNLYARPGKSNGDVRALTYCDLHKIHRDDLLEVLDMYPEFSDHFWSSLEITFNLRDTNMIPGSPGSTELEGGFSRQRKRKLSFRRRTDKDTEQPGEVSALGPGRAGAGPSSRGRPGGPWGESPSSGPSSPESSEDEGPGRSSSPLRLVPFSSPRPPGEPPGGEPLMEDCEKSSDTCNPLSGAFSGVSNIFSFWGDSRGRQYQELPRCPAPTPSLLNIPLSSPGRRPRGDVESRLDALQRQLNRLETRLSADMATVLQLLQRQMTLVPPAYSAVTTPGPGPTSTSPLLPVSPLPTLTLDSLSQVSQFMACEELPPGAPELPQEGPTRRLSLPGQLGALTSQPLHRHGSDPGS

A word on the IC50: it is the concentration that gives 50% inhibition. Usually inhibition stands for the percentage by which the read-out fell short of the control. With `CCCCCc1cc2c(c(O)c1C(=O)O)C=CC(C)(CCC=C(C)C)O2` (stereo unspecified), the half-maximal inhibitory concentration (IC50) in series [1] stood at 30.2 µM; in series [5], 5.7 µM; in series [6], 3.22 µM; in [7] it was 10.8 µM. Moreover, the CAC in series [2] and in [4] was 100 µM each time. Moreover, the inhibition in [3] and in series [8] was 100% throughout.
On to `C=C(C)[C@@H]1CCC(C)=C[C@H]1c1c(O)cc(CCCCC)c(C(=O)O)c1O` [CANNABIDIOLIC ACID], for which the IC50 in series [1] was found to be 46.8 µM. In addition, the inhibition in series [3] and in [8] was 100% in each case. In addition, the CAC in series [4] was 60.3 µM.
As for `CCCCCc1cc(O)c2c(c1)OC(C)(C)c1ccc(C)cc1-2` [CANNABINOL], the CAC in series [9] was determined as 23.1 µM; in series [10] it was 10.4 µM; in [2] it was 4.8 µM; in series [4], 12.9 µM. Besides, the concentration for half-maximal inhibition (IC50) in [11] is 4.89 µM; in series [1] it was 3.2 µM; in series [12], 3.35 µM; in [6], 1.15 µM; in series [7], 3.21 µM. Further, the inhibition in series [3] and in series [8] was 100% in each case.
Regarding `CCCCCc1cc(O)c(C/C=C(\C)CCC=C(C)C)c(O)c1` [CANNABIGEROL], the CAC in [9] is 100 µM; in series [10], 20.3 µM; in series [2], 16.7 µM; in series [4], 20.9 µM. Also, the IC50 in series [11] stood at 1.88 µM; in series [1], 8.8 µM; in [13], 0.95 µM; in series [12] it was 1.66 µM; in [6] it was 2.45 µM; in [7] it was 1.38 µM. In addition, the IC50 in [14] turned out to be 3.06 µM. The inhibition in series [3] and in series [8] was 100% throughout.
Consider `CCCCCc1cc(O)c(C/C=C(\C)CCC=C(C)C)c(O)c1C(=O)O` [CANNABIGEROLIC ACID], for which the IC50 in series [1] worked out at 28.8 µM; in series [13] it was 3.88 µM. Moreover, the inhibition in [3] and in series [8] was 100% in each case. Moreover, the CAC in [4] came out at 12 µM.
With `C=C(C)[C@@H]1CCC(C)=C[C@H]1c1c(O)cc(CCC)cc1O` [CANNABIDIVARIN], the CAC in series [9] is 31.6 µM; in [10], 100 µM; in series [2], 100 µM; in series [4], 31.6 µM. The half-inhibitory concentration (IC50) in [1] was 11 µM; in series [13], 3 µM; in [6], 2.66 µM; in series [7], 6.42 µM. The inhibition in series [3] and in series [8] was 100% in each case.
Take `CCCCCc1cc(O)c2c(c1)OC(C)(CCC=C(C)C)C=C2` (stereo unspecified) [CANNABICHROMENE]: the CAC came to 0.2 µM in series [9], 0.8 µM in series [10], 1.6 µM in series [2] and 5.6 µM in series [4]. Besides, the concentration for half-maximal inhibition (IC50) in [1] was determined as 1 µM; in series [13], 0.74 µM; in [12], 6.26 µM; in series [6] it was 1.95 µM. Moreover, the inhibition in series [3] and in series [8] was 100% in each case.

(Values after ChEMBL document CHEMBL6078653, “In Vitro Biological Target Screening and Colloidal Aggregation of Minor Cannabinoids” (J Nat Prod, 2024).)
